Where a name gives a salt, the structure may show the parent alone. Read-outs that look alike come from different tables or passages of the source.
Legend:
[1] = test system: passive cutaneous anaphylaxis (DNP-As antigen) in Wister strain rats; assay: passive cutaneous anaphylaxis (PCA) assay in rats; type: in vivo; conditions: 10 mg/kg oral, one hour before antigen; for inhibition in vivo at 10 mg/kg: Rattus norvegicus, po, 1 h, read-out: PCA Inhibition Ratio %
Description: (i) Antiserum abundant in homocytotropic antibody is prepared by the same method as Tada and Okumura did (cf. Journal of Immunology, vol. 106, page 1002, 1976). Thus, 1 mg (calculated as an amount of protein) of DNP-As (2,4-dinitrophenyl-coupled ascaris extract) prepared by methods of Strejan and Campbell (Journal of Immunology, vol. 98, p. 893, 1971) and of Eisen (Journal of Amer. Chem. Soc., vol. 85, p 4593, 1953) and 1×10^10pertussis vaccine are administered to each paw of Wister strain rats (180 to 200 grams body weights) by dividing the dose by four. Five days later, 0.5 mg of DNP-As is administered into muscle of back. Eight days later from the initial immunization, blood is taken from descending aorta under anesthetizing with ether, the resulting serum is stored at -80° and is melted before use.
(ii) Effect of tested compounds is investigated as follows:
Anti-serum obtained by the method (i) is diluted with physiological saline solution double by double successively and 0.05 ml of each diluted solution is administered into back of Wister strain rats (140 to 160 grams body weight) subcutaneously. After 72 hours, a solution of 2 mg (calculated as protein) of DNP-As and 2.5 mg of Evans Blue dissolved in 1 ml of physiological saline solution is administered intraveously at a dose of 5 ml/kg. After 30 minutes from antigen solution administration, the animals are killed and diameters of blue spots appeared at the place where antiserum is administered are measured. The PCA test is conducted by the same method as already described using a diluted solutions of antiserum which always show 10 mm or more of spot diameters and the effect of the test compounds is judged. Thus antiserum diluted solutions are administered to two places in back. Test compounds are administered orally at the dose of 10 mg/kg one hour before administration of antigen solution. From the skin of reacted parts of killed animals, leaked or emitted dyestuff is extracted and the amount of the dyestuff is measured. The inhibition ratio is calculated by the following expression:
Inhibition Ratio=(1-A'/A)×100
in which A' is an amount of dyestuff in the group treated with the test compounds and A is that in the control group.

[2] = test system: SRS-A (slow reacting substance of anaphylaxis); assay: Anti-SRS-A action using isolated ileus of guinea pigs
Description: Anti-SRS-As action (An anti-action against slow reacting substance of anaphylaxis).
Hartley strain male guinea pigs (300 to 350 grams body weight) are killed and 1.0 to 1.5 cm of ileus is immeidiately excised from ileocecal parts and is suspended in 10 ml of Tyrode solution (95% O2 -5% CO2 saturation) containing 10^-7 g/ml of atropine and 10^-6 g/ml of pyrilamine. SRS-A (20 units) (the amount of SRS-A showing the same shrinkage as 5 ng of histamine is defined as 1 unit) prepared by using sensitized guinea pig lung is given to cause shrinkage there. Then antagonistic action of test compounds treated five minutes ago against the shrinkage is measured and recorded via isotonic transducer.
Inhibition Ratio of Test Compd (%)=(1-A'/A)×100
in which A' is a height of shrinkage of SRS-A+test compound and A is that of SRS-A.

[3] = test system: carrageenin edema in SD-strain rats; assay: Carrageenin edema at hind foot of rats (anti-inflammatory action); type: in vivo, rat; conditions: for inhibition in vivo at 200 mg/kg: Rattus norvegicus, po, 3 h, read-out: % Inhibition of carrageenin edema
Description: The anti-inflammatory action of the compounds of the present invention were evaluated by measuring the inhibition against carrageein edema as set forth below.
Carrageenin edema at hind foot of rats:
SD-strain rats of body weights of around 150 grams were used, each group consisting of five rats. A solution (0.1 ml) of 0.5% carrageenin dissolved in physiological saline water was hypodermically injected into right hind foot pat of the rats and, one hour prior to the injection of carrageenin, 200 mg/kg of test compound was given per os. Foot volumes of the rats before the carrageenin treatment and those of three hours after the treatment were measured and the differences were compared with those of the control group to determine the effect of the compounds.

male mice = assay: Acute oral toxicity in mice (lethal ratio); type: in vivo; conditions: 400 mg/kg oral, two weeks, four mice per group
Description: Acute toxicity was determined two weeks after oral administration of 400 mg/kg to male mice. Four mice (denominator) are used in each group and the dead numbers are given as the numerator. The compounds of the present invention show little, if any, toxicity.
Lethal ratios for all other compounds are 0/4 at doses of […]. It is therefore apparent that they are all safe compounds.

[4] = 10^-6 M; guinea pig ileus, SRS-A 20 units; 5 min, 1 µM
[5] = 200 mg/kg per os one hour before carrageenin, 3 hours after

Compound	inhibition in vivo at 10 mg/kg [1] [%]	SRS-A Inhibition Ratio % [2, 4] [%]	inhibition in vivo at 200 mg/kg [3, 5] [%]	other results
COc1ccc(C(=O)c2c(O)c3cc(C)ccc3[nH]c2=O)cc1OC [Example 29, 3-(3,4-dimethoxybenzoyl)-4-hydroxy-6-methyl-2-quinolone]	12.1	42.1		
CCCCc1ccc2[nH]c(=O)c(C(=O)c3ccccc3)c(O)c2c1 [Example 22, 3-benzoy-6-n-butyl-4-hydroxy-2-quinolone]	17.4	39.5		
COc1ccc(C(=O)c2c(O)c3ccccc3[nH]c2=O)cc1OC [Example 2, 3-(3,4-Dimethoxybenzoyl)-4-hydroxy-2-quinolone]	25.5	24.2		
O=C(c1ccccc1)c1c(O)c2cc(Cl)ccc2[nH]c1=O [Example 1, 3-Benzoyl-6-chloro-4-hydroxy-2-quinolone]			42.1	
CCCCCCc1ccc2[nH]c(=O)c(C(=O)c3ccccc3)c(O)c2c1 [Example 55]	13.6			SRS-A Inhibition Ratio % ([2]; 10^-6 M, guinea pig ileus, SRS-A 20 units, 5 min, 1 µM): 85.6%; % Inhibition of carrageenin edema [3, 5]: 10.0%
COC(=O)c1cccc2[nH]c(=O)c(C(=O)c3ccccc3)c(O)c12 [Example 3, Methyl 3-benzoyl-4-hydroxy-2-quinolone-5-carboxylate]	26.9	26.4	32.8	
O=C(c1ccccc1)c1c(O)c2cccc(C(=O)O)c2[nH]c1=O [Example 16, 3-benzoyl-4-hydroxy-2-quinolone-8-carboxylic acid]	30.9	22.4		Lethal Ratio (dead/treated) (male mice): 0/4
O=C(c1ccccc1Cl)c1c(O)c2ccccc2[nH]c1=O [Example 35, 3-(2-chlorobenzoyl)-4-hydroxy-2-quinolone]	45.6	32.6		Lethal Ratio (dead/treated) (male mice): 0/4
CCCCCCc1ccc2[nH]c(=O)c(C(=O)c3ccc(OC)cc3)c(O)c2c1 [Example 59]			12.8	
CC(=O)Oc1ccccc1C(=O)O [Acetylsalicylic Acid, reference compound]				inhibition in vivo at 200 mg/kg [3]: 31.6%
COC(=O)c1cccc2c(O)c(C(=O)c3ccccc3)c(=O)[nH]c12 [Example 13]	25.7	19.8		Lethal Ratio (dead/treated) (male mice): 1/4
COc1ccc(C(=O)c2c(O)c3cccc(C)c3[nH]c2=O)cc1OC [Example 31, 3-(3,4-dimethoxybenzoyl)-4-hydroxy-8-methyl-2-quinolone]	20.4	20.5	77.5	
O=C(c1ccc(Cl)cc1)c1c(O)c2ccccc2[nH]c1=O [Example 39, 3-(4-chlorobenzoyl)-4-hydroxy-2-quinolone]	19.8	27.0		
COc1ccccc1C(=O)c1c(O)c2ccccc2[nH]c1=O [Example 24, 4-hydroxy-3-(2-methoxybenzoyl)-2-quinolone]	24.7	20.2		
COc1ccc(C(=O)c2c(O)c3ccccc3[nH]c2=O)c(OC)c1OC [Example 32, 4-hydroxy-3-(2,3,4-trimethoxybenzoyl)-2-quinolone]	16.3	100		SRS-A Inhibition Ratio % (value in parentheses) ([2]; 10^-7 M; guinea pig ileus, SRS-A 20 units; 5 min, 0.1 µM): 83.3%; Lethal Ratio (dead/treated) (male mice): 0/4
COc1ccc(C(=O)c2c(O)c3ccc([N+](=O)[O-])cc3[nH]c2=O)c(OC)c1OC [Example 54, 4-hydroxy-7-nitro-3-(2,3,4-trimethoxybenzoyl)-2-quinolone]			13.1	
CC(C)c1ccc2[nH]c(=O)c(C(=O)c3ccc([N+](=O)[O-])cc3)c(O)c2c1 [Example 48, 4-hydroxy-6-isopropyl-3-(4-nitrobenzoyl)-2-quinolone]	8.6		12.5	
Cc1ccc2c(O)c(C(=O)c3ccccc3)c(=O)[nH]c2c1 [Example 18, 3-benzoyl-4-hydroxy-7-methyl-2-quinolone]	26	21.3		
O=C(O)c1ccc(C(=O)c2c(O)c3ccccc3[nH]c2=O)cc1 [Example 51, 3-(4-carboxybenzoyl)-4-hydroxy-2-quinolone]	7.4	50.0		
O=C(c1cccc(C(F)(F)F)c1)c1c(O)c2ccccc2[nH]c1=O [Example 44, 4-hydroxy-3-(3-trifluoromethylbenzoyl)-2-quinolone]			15.9	
CC(C)c1ccc2[nH]c(=O)c(C(=O)c3ccccc3Cl)c(O)c2c1 [Example 36, 3-(2-chlorobenzoyl)-4-hydroxy-6-isopropyl-2-quinolone]	12.4	60.0		
Cc1cc(C)c2[nH]c(=O)c(C(=O)c3ccccc3Cl)c(O)c2c1 [Example 37, 3-(2-chlorobenzoyl)-6,8-dimethyl-4-hydroxy-2-quinolone]	20.8	28.3		
Cc1cc2[nH]c(=O)c(C(=O)c3ccccc3)c(O)c2cc1C [Example 20, 3,-benzoyl-6,7-dimethyl-4-hydroxy-2-quinolone]	17.4	23.5		
COc1ccc(C(=O)c2c(O)c3ccccc3[nH]c2=O)c(OC)c1 [Example 28, 3-(2,4-dimethoxybenzoyl)-4-hydroxy-2-quinolone]	21.2	42.9		
CCCCCCc1ccc2[nH]c(=O)c(C(=O)c3ccccc3)c(O)c2c1 [Example 7, 3-Benzoyl-6-n-hexyl-4-hydroxy-2-quinolone sodium salt]				PCA Inhibition Ratio % ([1]; rat, sodium salt, 10 mg/kg): 15.2%; SRS-A Inhibition Ratio % ([2]; 10^-6 M, guinea pig ileus, SRS-A 20 units, 5 min, 1 µM, sodium salt): 91.2%
Cc1ccc2[nH]c(=O)c(C(=O)c3ccccc3)c(O)c2c1 [Example 17, 3-benzoyl-4-hydroxy-6-methyl-2-quinolone]	35.4	21.9		
CC(C)c1ccc2[nH]c(=O)c(C(=O)c3ccccc3)c(O)c2c1 [Example 5, 3-Benzoyl-4-hydroxy-6-isopropyl-2-quinoline]			32.1	
COc1ccc(C(=O)c2c(O)c3ccc([N+](=O)[O-])cc3[nH]c2=O)cc1OC [Example 30, 3-(3,4-dimethoxybenzoyl)-4-hydroxy-7-nitro-2-quinolone]	18.7	26.7	21.3	
Cc1ccc(C(=O)c2c(O)c3ccccc3[nH]c2=O)c(C)c1 [Example 43, 3-(2,4-dimethylbenzoyl)-4-hydroxy-2-quinolone]			15.7	
CCCCCc1ccc(C(=O)c2c(O)c3ccccc3[nH]c2=O)cc1 [Example 46, 4-hydroxy-3-(4-n-pentylbenzoyl)-2-quinolone]	3.2	26.9		

— patent publication US4526894A, “Pharmaceutically active 4-hydroxy-3-benzoyl-2-quinolone derivatives” (Nippon Shinyaku Co. Ltd., priority 1982, dated 1985)
